Active and inactive are the calls of the source.
Legend:
[1] = target: Glyceraldehyde-3-phosphate dehydrogenase (Homo sapiens, UniProt P04406)
[2] = target: T1, Alkaline phosphatase, tissue-nonspecific isozyme (Homo sapiens, UniProt P05186); experiment: potency against alkaline phosphatase TNAP – biochemical, luminescent, dose response, SAR follow-up (AID 1056)
T1 sequence (P05186 whole entry): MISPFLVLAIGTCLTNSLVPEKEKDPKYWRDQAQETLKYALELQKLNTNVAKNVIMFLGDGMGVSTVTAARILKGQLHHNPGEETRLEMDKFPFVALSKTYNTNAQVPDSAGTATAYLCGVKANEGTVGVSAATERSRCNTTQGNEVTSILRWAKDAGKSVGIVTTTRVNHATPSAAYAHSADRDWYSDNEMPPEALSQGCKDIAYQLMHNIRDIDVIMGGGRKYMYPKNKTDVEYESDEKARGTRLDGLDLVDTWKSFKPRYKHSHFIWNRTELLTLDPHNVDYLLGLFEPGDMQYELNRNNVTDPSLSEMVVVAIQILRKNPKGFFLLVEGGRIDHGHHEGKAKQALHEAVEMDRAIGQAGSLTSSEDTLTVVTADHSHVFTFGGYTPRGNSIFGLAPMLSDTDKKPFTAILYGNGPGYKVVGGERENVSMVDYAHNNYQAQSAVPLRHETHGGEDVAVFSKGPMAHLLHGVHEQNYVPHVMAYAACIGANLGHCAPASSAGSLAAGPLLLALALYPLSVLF

Vero = experiment: host cell viability loss, Vero E6 – synthesized analogs, cytotoxicity control for West Nile virus antiviral project, SAR follow-up (AID 2244); type: functional; settings: Chlorocebus sabaeus
Cytochrome P450 2C9 [3] = target: T2, Cytochrome P450 2C9 (Homo sapiens, UniProt P11712); settings: Potency
Cytochrome P450 2C9 [4] = target: T2, Cytochrome P450 2C9
Cytochrome P450 2D6 = Cytochrome P450 2D6 (Homo sapiens, UniProt P10635);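 further: CYP2D6 member of a cytochrome P450 panel assay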
[5] = HEK-293T cell viability reduction – luminescence, B-cell screen hits, cytotoxicity control for BCR NF-kB inhibitor project, dose response (AID 489021); type: functional, cell-based;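 further: HEK-293T cells carrying an NF-kB luciferase reporter; cells exposed to compound for about 14 hours before viability readout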
[6] = HEK-293T viability loss after treatment – luminescence, T-cell screen hits, cytotoxicity control for TCR NF-kB inhibitor project, dose response (AID 489026); type: functional, cell-based;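 further: cells exposed to compound about 14 hours before the viability readout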
Prothrombin = Prothrombin (Homo sapiens, UniProt P00734); experiment: Thrombin 1536 HTS Dose Response Confirmation. [Related pubchem assays: 1046 (Thrombin 1536 HTS; hits were confirmed in this assay)]; type: functional
Coagulation factor XII = target: T3, Coagulation factor XII (Homo sapiens, UniProt P00748); type: functional;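 further: activated factor XIIa alpha cleaving a fluorogenic AMC peptide substrate; inhibitor potency from loss of enzyme activity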
T3 sequence (P00748 whole entry): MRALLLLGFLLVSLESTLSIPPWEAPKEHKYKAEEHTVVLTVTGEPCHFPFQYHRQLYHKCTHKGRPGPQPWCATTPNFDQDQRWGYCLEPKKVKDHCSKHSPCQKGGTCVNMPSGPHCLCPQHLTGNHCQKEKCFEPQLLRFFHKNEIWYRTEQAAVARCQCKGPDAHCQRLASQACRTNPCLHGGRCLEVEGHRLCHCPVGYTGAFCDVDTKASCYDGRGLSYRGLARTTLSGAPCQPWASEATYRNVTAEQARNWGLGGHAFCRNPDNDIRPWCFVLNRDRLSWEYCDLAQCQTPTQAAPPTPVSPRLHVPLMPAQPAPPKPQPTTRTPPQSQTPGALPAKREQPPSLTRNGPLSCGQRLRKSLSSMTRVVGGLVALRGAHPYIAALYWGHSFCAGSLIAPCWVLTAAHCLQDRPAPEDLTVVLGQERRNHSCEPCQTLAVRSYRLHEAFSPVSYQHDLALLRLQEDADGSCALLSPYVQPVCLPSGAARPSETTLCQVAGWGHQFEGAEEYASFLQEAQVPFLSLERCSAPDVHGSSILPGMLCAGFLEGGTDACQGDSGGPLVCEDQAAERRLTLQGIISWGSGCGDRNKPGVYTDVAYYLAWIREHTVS

Estrogen receptor = target: T4, Estrogen receptor (Homo sapiens, UniProt P03372);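 further: potency for inhibiting coactivator peptide recruitment to the receptor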
T4 sequence (P03372 whole entry): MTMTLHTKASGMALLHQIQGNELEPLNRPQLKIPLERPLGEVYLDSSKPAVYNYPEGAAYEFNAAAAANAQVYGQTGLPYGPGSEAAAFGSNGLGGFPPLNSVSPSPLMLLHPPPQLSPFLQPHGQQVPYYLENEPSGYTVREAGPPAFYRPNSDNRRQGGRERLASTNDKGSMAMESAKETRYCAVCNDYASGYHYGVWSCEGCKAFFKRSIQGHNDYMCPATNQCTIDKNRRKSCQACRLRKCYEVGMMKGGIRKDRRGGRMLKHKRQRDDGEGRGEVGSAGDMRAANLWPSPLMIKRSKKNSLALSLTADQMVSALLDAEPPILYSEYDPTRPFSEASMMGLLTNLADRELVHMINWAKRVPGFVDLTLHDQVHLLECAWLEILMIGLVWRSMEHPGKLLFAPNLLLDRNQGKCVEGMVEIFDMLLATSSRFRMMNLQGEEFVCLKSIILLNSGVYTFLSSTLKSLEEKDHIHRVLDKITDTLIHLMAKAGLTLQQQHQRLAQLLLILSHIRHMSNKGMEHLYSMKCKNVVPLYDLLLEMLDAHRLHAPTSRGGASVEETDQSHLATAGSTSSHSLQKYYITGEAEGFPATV

fMet-Leu-Phe receptor = target: T5, fMet-Leu-Phe receptor (Homo sapiens, UniProt P21462); experiment: formyl peptide receptor binders – dose response (AID 519); type: functional
T5 sequence (P21462 whole entry): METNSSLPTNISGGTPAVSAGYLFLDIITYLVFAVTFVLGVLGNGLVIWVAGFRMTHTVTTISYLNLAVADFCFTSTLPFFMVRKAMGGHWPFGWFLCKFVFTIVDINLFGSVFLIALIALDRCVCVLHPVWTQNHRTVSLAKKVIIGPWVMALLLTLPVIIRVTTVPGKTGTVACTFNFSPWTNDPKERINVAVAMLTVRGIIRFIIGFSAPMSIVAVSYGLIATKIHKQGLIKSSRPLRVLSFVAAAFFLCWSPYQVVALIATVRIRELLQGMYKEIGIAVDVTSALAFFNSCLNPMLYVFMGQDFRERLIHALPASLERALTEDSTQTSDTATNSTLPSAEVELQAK

[7] = target: Potassium voltage-gated channel subfamily KQT member 2 (Rattus norvegicus, UniProt O88943, W236L); experiment: potentiation of rat KCNQ2 current – cell-based, automated electrophysiology, mechanism study for KCNQ2 potentiator project, dose response (AID 2603); type: functional
[8] = target: T6, Replicative DNA helicase DnaB (Mycobacterium tuberculosis, UniProt P9WMR3); experiment: DnaB intein splicing inhibitors, dose response, biochemical, cell-free fluorescence (AID 449749); type: functional
T6 sequence (P9WMR3 whole entry): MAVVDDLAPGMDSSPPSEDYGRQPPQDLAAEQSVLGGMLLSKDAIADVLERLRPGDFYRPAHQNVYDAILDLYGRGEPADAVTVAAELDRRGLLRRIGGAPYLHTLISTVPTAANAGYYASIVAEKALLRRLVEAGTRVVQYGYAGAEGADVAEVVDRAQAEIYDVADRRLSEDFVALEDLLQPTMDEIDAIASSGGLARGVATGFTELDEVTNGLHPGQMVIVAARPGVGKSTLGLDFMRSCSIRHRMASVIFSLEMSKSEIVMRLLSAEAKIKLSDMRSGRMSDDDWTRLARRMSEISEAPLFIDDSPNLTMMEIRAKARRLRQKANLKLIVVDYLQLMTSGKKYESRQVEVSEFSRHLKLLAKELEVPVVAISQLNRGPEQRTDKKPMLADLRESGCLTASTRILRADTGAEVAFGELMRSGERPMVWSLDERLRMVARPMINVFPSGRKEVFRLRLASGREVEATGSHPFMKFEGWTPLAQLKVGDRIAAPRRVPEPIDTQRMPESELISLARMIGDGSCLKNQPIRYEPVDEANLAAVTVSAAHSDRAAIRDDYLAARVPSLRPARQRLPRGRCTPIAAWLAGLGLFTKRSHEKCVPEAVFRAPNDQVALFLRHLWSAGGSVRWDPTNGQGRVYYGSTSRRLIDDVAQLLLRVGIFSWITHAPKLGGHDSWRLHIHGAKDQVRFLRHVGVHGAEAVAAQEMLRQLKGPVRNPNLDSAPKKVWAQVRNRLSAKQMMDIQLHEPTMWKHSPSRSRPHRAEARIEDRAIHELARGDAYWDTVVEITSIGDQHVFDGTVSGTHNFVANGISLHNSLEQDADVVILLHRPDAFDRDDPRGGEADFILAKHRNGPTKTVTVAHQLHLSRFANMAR

Protein RecA = target: T7, Protein RecA (Mycobacterium tuberculosis, UniProt P9WHJ3); experiment: Fluorescence Cell-Free Homogeneous Dose Retest to Identify Inhibitors of RecA-Intein Splicing Activity. [Related pubchem assays (depositor defined):AID2097, AID2223, AID489010, AID492950]; type: functional
T7 sequence (P9WHJ3 whole entry): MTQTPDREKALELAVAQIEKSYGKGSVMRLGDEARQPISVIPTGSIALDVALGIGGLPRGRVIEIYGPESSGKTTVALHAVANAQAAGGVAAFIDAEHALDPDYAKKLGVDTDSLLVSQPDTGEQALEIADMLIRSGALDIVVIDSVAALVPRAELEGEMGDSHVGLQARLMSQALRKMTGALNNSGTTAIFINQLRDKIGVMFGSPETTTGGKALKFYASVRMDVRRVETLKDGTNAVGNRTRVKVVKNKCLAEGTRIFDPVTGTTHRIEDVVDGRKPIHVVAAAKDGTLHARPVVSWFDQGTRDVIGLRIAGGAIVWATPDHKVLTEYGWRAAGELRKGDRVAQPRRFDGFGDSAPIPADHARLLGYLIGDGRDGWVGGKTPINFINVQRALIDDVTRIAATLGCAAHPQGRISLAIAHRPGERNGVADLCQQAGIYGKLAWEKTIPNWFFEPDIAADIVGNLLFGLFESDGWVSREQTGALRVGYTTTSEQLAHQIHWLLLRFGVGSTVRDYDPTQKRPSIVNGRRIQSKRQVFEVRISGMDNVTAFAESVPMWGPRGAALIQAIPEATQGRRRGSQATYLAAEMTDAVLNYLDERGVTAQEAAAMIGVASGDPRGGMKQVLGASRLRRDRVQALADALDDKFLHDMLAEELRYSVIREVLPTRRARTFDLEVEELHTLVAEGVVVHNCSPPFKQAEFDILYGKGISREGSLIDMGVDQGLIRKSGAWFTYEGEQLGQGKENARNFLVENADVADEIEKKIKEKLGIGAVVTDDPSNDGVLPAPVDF

Cytochrome P450 2C19 = Cytochrome P450 2C19 (Homo sapiens, UniProt P33261); experiment: Cytochrome panel assay with activity outcomes. Panel member name: p450-cyp2c19 Compounds with AC50 equal or less than 10 uM are considered active; type: functional; settings: read-out: AC50
[9] = test system: Streptococcus sp. 'group A'; experiment: Streptococcus pyogenes SK(-)GAS viability under kanamycin – luminescence, BacTiterGlo, confirmation, counter-screen for streptokinase expression inhibitor project, dose response (AID 1900); type: functional, organism-based
Streptococcus = experiment: GAS UMAA2166 growth inhibition – luminescence, BacTiterGlo, counter-screen for streptokinase expression inhibitor project, dose response (AID 1915); type: functional, organism-based;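 further: potency for reduction of bacterial viability or growth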
[10] = THP-1 cell cytotoxicity, dose response, cytotoxicity control for non-replicating M. tuberculosis project (AID 489025); type: functional
[11] = HepG2 cell cytotoxicity, dose response, cytotoxicity control for non-replicating M. tuberculosis project (AID 489018); type: functional; settings: Mycobacterium tuberculosis
[12] = Vero E6 cell cytotoxicity, dose response, cytotoxicity control for non-replicating M. tuberculosis project, secondary assay (AID 492998); type: functional, VeroE6; settings: Vero C1008
cells = type: functional

T2 sequence (P11712 whole entry): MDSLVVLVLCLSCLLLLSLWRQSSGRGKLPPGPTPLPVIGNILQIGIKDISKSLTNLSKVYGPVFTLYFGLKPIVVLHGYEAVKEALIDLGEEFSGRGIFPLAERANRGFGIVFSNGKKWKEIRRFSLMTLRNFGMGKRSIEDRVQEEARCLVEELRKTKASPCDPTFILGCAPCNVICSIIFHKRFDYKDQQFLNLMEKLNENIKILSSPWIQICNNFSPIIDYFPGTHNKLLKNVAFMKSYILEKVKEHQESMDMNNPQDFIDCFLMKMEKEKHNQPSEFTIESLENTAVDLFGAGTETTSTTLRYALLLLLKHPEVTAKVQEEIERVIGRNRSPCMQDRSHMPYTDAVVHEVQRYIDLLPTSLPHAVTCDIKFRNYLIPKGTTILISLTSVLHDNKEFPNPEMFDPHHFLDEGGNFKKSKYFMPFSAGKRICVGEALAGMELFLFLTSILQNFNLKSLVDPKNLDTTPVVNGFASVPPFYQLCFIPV
Chain of Glyceraldehyde-3-phosphate dehydrogenase (P04406 whole entry): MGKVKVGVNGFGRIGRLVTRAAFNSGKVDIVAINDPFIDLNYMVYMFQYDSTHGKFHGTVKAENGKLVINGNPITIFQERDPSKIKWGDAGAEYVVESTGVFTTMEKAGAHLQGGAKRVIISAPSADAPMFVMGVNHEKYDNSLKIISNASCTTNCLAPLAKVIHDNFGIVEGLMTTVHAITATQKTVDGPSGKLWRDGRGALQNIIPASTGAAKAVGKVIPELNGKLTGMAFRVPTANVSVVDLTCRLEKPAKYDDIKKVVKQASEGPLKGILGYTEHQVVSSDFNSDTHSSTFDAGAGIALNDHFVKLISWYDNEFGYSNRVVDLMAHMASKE
Chain of Cytochrome P450 2D6 (P10635 whole entry): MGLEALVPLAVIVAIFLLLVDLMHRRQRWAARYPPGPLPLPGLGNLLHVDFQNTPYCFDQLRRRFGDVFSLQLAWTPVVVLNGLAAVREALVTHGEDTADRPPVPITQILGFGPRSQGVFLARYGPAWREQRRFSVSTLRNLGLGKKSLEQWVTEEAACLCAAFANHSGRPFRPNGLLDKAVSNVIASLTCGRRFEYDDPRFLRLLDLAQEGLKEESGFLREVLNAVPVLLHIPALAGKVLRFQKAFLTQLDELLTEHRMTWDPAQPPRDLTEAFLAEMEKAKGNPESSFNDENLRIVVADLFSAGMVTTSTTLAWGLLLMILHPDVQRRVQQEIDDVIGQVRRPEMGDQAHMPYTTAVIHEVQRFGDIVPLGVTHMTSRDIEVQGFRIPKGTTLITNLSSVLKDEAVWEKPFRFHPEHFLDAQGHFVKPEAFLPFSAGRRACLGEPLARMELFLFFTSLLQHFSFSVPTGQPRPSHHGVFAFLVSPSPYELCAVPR
Chain of Potassium voltage-gated channel subfamily KQT member 2 (O88943 whole entry W236L): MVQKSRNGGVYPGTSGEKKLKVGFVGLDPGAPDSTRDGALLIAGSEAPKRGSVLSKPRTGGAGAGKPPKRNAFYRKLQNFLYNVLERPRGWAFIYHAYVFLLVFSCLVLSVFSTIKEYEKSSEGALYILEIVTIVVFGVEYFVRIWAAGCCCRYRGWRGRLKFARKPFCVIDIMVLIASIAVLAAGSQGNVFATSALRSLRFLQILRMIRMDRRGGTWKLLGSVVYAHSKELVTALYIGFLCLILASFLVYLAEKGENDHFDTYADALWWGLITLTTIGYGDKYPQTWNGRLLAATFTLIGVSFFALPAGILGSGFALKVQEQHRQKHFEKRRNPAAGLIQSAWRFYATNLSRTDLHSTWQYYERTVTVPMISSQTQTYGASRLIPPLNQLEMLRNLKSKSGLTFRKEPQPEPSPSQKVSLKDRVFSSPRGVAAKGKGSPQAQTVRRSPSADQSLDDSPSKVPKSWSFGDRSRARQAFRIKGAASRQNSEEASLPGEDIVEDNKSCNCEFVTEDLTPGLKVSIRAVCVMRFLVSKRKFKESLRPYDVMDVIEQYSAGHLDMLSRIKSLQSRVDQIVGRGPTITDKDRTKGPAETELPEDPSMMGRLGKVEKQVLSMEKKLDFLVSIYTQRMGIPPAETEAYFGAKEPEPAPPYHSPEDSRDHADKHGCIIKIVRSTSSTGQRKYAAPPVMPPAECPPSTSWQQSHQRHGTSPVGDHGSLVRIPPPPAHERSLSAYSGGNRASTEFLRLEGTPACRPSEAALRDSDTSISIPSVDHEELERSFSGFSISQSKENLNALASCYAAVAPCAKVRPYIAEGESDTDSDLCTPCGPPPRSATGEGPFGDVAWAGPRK
Chain of Cytochrome P450 2C19 (P33261 whole entry): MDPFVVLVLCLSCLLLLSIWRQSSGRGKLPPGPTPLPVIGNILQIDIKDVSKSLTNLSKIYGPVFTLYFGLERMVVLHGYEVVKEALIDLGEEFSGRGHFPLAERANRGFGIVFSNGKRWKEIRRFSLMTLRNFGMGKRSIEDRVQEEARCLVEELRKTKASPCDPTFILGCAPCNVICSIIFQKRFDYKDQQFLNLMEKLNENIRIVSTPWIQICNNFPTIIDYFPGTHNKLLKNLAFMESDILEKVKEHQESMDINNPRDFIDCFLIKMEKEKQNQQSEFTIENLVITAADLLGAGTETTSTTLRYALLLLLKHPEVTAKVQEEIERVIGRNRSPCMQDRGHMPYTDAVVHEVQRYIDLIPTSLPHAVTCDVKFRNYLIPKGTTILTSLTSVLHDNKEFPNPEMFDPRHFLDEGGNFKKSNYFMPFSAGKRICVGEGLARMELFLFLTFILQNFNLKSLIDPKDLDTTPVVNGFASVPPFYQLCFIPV

## O=S(=O)(Nc1cnc2ccccc2c1)c1cc(Cl)ccc1F
[1]
  IC50: > 100 µM (not active)
[2]
  IC50: 4.26 µM (active)

## O=C(CSc1nc2ccccc2c(=O)n1-c1ccc(F)cc1)Nc1ccc2c(c1)OCCO2
Vero
  CC50: > 40 µM (active)

## COc1ccc(C#CC2C=CC(Oc3cc(C)cc(C)c3)C(CO)O2)cc1 (stereo not given)
Cytochrome P450 2C9 [3]
  AC50: 2 µM (inconclusive)

## O=C(O)c1ccc(/C=N\N=C2c3ccccc3-c3ccccc32)cc1
Cytochrome P450 2C9 [4]
  AC50: 7.94 µM (inconclusive)
Cytochrome P450 2D6
  AC50: inconclusive

## O=C(NCCCN1CCOCC1)c1cc(-c2ccc(Br)cc2)on1
[5]
  IC50: > 80 µM (inactive)

## CC(=O)Nc1ccc(S(=O)(=O)N2CCCc3ccccc32)cc1
[6]
  IC50: > 80 µM (inactive)

## COc1ccc(-c2csc(NC(=O)c3cccc(Cl)c3)n2)cc1
Vero
  CC50: > 40 µM (active)

## CCc1nnc(NC(=O)CCN(c2ccc(C)cc2)S(=O)(=O)c2ccccc2)s1
Prothrombin
  IC50: > 50 µM (not active)
Coagulation factor XII
  IC50: > 50 µM (inactive)

## CCCCC1C(=O)N(c2ccccc2)N(c2ccccc2)C1=O [PHENYLBUTAZONE]
Estrogen receptor
  IC50: > 50 µM (not active)
fMet-Leu-Phe receptor
  Ki: 5.3 µM (active)
Cytochrome P450 2C9 [3]
  AC50: 31.6 µM (inconclusive)

## Cc1ccc(S(=O)(=O)Nc2cnc3ccccc3c2)c(C)c1C
[1]
  IC50: > 100 µM (not active)
[2]
  IC50: > 100 µM (inactive)

## CC(C)c1nnc(NC(=O)c2nc(S(=O)(=O)Cc3ccccc3F)ncc2Cl)s1
[7]
  EC50: 8.4 µM (active)
[8]
  AC50: 4.25 µM (active)
Protein RecA
  EC50: 3.16 µM (active)

## CCCNC(=O)c1cc2c(C(F)(F)F)nn(C)c2s1
Cytochrome P450 2C19
  AC50: 31.6 µM (inconclusive)
Cytochrome P450 2D6
  AC50: inconclusive

## O=C(O)c1cc(-c2ccccc2O)n[nH]1
[1]
  IC50: > 100 µM (not active)
[2]
  IC50: > 100 µM (inactive)

## CN(c1ccccc1)S(=O)(=O)c1ccc(C(=O)Nc2nnc(-c3ccc(F)cc3)o2)cc1
[9]
  EC50: 0.159 µM (active)
Streptococcus
  EC50: 2.93 µM (active)
[10]
  CC50: 17.2 µM (active)
[11]
  CC50: 15.6 µM (active)
[12]
  CC50: 7.81 µM (active)
cells
  IC50: > 50 µM (active)

## CCCCC#CC1C=CC(Oc2ccc(C(=O)OC)cc2)C(COC(=O)OCC)O1 (stereo not given)
Cytochrome P450 2C9 [3]
  AC50: 3.16 µM (inconclusive)
